Common to all, as to experiment: cells
One experiment concerns NB12. It counts as functional, cell-based. Conditions: Homo sapiens.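 Note: growth inhibition of human NB12 cells, read out by a cell viability assay.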
For another experiment, the system named is KYSE-150 cell line. It counts as functional, cell-based. Conditions: Homo sapiens.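 Note: growth inhibition of human KYSE-150 cells, read out with a cell viability assay.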
In another experiment the test system is KYSE-70 cell line. It counts as functional, cell-based. Conditions: Homo sapiens.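 Note: cell viability assay read-out, with IC50 expressing suppression of KYSE-70 cell growth.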
In a further experiment the test system is KU812 cell line. It counts as functional, cell-based, Homo sapiens. As to conditions: Homo sapiens, KU812.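 Note: growth inhibition of KU812 cells, read out with a cell viability assay.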
The subject of another experiment is LCLC-103H cell line. It counts as functional, cell-based. As to conditions: Homo sapiens.
The test system of another experiment is KYSE-520 cell line. It counts as functional, cell-based. Conditions: Homo sapiens.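 Note: growth inhibition of human KYSE-520 cells, read out with a viability assay.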
The subject of the next experiment is A253 cell line. It counts as functional, cell-based, Homo sapiens. Conditions: Homo sapiens, A253.
In a further experiment the test system is LXF-289 cell line. It counts as functional, cell-based. As to conditions: Homo sapiens.
In a further experiment the test system is NB69. It counts as functional, cell-based, Homo sapiens. Conditions: Homo sapiens, NB69.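 Note: growth inhibition of NB69 cells, determined by a cell viability assay.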
A further experiment has as its system COLO-800. It counts as functional, cell-based, Homo sapiens. Conditions: Homo sapiens, COLO-800.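 Note: growth inhibition of COLO-800 cells, read out with a cell viability assay.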
The next experiment deals with MHH-ES-1. It counts as functional, cell-based. As to conditions: Homo sapiens.

Description for A253 cell line: SANGER: Inhibition of human A253 cell growth in a cell viability assay.
Description for COLO-800: SANGER: Inhibition of human COLO-800 cell growth in a cell viability assay.
Description for KU812 cell line: SANGER: Inhibition of human KU812 cell growth in a cell viability assay.
Description for KYSE-150 cell line: SANGER: Inhibition of human KYSE-150 cell growth in a cell viability assay.
Description for KYSE-520 cell line: SANGER: Inhibition of human KYSE-520 cell growth in a cell viability assay.
Description for KYSE-70 cell line: SANGER: Inhibition of human KYSE-70 cell growth in a cell viability assay.
Description for LCLC-103H cell line: SANGER: Inhibition of human LCLC-103H cell growth in a cell viability assay.
Description for LXF-289 cell line: SANGER: Inhibition of human LXF-289 cell growth in a cell viability assay.
Description for MHH-ES-1: SANGER: Inhibition of human MHH-ES-1 cell growth in a cell viability assay.
Description for NB12: SANGER: Inhibition of human NB12 cell growth in a cell viability assay.
Description for NB69: SANGER: Inhibition of human NB69 cell growth in a cell viability assay.

As usually defined, the IC50 is the concentration that inhibits the measured activity by half. In turn, `O=C1/C(=C/c2cccs2)CC/C1=C\c1cccs1` gave a 50% inhibitory concentration (IC50) in the experiment on NB12 of 1.31 µM.
In the case of `O=C(NOC[C@H](O)CO)c1ccc(F)c(F)c1Nc1ccc(I)cc1F` [MIRDAMETINIB], the IC50 in the experiment with KYSE-150 cell line is 0.727 µM; with KYSE-70 cell line, greater than 2 µM; with KU812 cell line, 0.203 µM; with LCLC-103H cell line, greater than 2 µM; in the experiment with KYSE-520 cell line, 0.236 µM; in the experiment on A253 cell line, 1.26 µM. This compound yielded a 50% inhibitory concentration (IC50) in the experiment with LXF-289 cell line greater than 2 µM.
For `CNCc1ccc(-c2[nH]c3cc(F)cc4c3c2CCNC4=O)cc1` [RUCAPARIB], the IC50 in the experiment with NB69 was found to be 0.946 µM; in the experiment with COLO-800 it was 0.632 µM; in the experiment with MHH-ES-1 it was 0.501 µM.

For the origin of these results see ChEMBL document CHEMBL1201861, “Genomics of Drug Sensitity in Cancer screening data, Wellcome Trust Sanger Institute”.
